Results on four sequences are retold here after publication PMC4512654 (Analytical biochemistry, 2014).

Assay [1] concerns the target T1, Activated Factor XIII (FXIIIa) (Homo sapiens, UniProt P00488).
T1 sequence (P00488 39-732 limits assumed): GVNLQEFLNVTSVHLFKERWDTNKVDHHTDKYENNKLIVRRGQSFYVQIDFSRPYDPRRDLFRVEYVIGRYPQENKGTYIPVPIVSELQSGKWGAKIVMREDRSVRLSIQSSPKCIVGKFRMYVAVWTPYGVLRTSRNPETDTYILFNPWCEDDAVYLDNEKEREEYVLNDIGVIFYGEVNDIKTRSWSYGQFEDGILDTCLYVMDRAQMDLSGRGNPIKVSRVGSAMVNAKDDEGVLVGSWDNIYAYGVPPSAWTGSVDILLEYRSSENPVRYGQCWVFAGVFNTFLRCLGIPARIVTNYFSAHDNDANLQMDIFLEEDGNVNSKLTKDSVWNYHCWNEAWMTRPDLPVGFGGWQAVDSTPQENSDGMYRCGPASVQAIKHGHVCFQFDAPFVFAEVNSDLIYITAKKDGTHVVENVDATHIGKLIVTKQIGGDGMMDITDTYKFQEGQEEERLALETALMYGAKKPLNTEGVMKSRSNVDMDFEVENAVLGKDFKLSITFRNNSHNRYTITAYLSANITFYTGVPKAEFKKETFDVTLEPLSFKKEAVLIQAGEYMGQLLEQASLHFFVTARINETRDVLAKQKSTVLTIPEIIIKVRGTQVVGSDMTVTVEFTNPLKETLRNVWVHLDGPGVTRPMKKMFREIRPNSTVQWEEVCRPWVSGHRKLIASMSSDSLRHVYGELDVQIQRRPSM
Format: biochemical.

A further assay relates to FXIIIa. The following applies: coupled uv/vis assay, derived earlier; cited from earlier work.

As a reminder, the Km is the concentration of substrate that gives half-maximal velocity.

As to FQSGQVLAALPRTSR [TAFI (1–15)], the “Km weaker than α2AP (1–15) K12R and S. Aureus Fnb A (100–114)” value in assay [1] is “more than 5 fold”.

Take “SGDQRQVDLIPKKAT [S. Aureus Fnb A (100–114)]”: in assay [1] (P < 0.05), the “Km better than S. Aureus Fnb A (100–110)” value is listed as “almost two-fold better”.

Turning to NQEQVSPLTLLKLGN [α2AP (1–15)], the Km in the assay with FXIIIa was 459 ± 50 µM.

As to NQEKVSPLTLLKLGN [α2AP (1–15) Q4K], in the assay on FXIIIa, the Michaelis constant (Km) was 426 ± 93 µM.
